Assays:
frataxin (FXN) mRNA = assay: FXN mRNA by RT-PCR (relative to TBP) in FRDA patient cell line GM15850; type: cell-based, human; details: GM15850, 1 μM, 24 hours
Protocol: Cells were maintained in RPMI 1640 supplemented with 2 mM L-glutamine and 15% fetal bovine serum (FBS) at 37° C. in a humidified atmosphere of 5% CO2. Cell density was maintained between 200,000 cells/mL and 1,000,000 cells/mL. Cell growth and morphology were monitored by phase contrast microscopy and cell viability by trypan blue exclusion. To maintain cell density, cells were passaged by centrifuging at 500 g for 3 minutes and resuspending the cells in fresh media. To avoid cross-contamination, cells were handled separately with separate bottles of media. Relevant data were obtained from cell lines passaged between P9 and P12.
To prepare agents for treatment of cells, each agent or agent mixture tested was dissolved in DMSO. […] 500,000 cells ells were seeded at 500,000 cells/mL and treated 24 h with agents in DMSO (0.1-0.2% DMSO final concentration). For the 24 hour treatment, cell media was changed immediately before treatment with agent and agent was added at the zero time point. The media was not changed during the 24 hour treatment time period.
After treatment with the agents or agent mixtures, cells were harvested and total RNA was purified with the RNeasy Mini Kit (Qiagen, Valencia, Calif.), including on-column DNase I treatment (ZYMO Research, Catalog number E1010), according to manufacturer's directions. […]

FXN protein [1] = assay: Immunoblot for FXN protein in GM15851 cells; type: cell-based, human; details: GM15851, 24 hours, 1 μM (Agent 4: 0.1, 0.5 or 1 μM)
Protocol: (§1) In FIG. 3A, “50” refers to GM15850 cells and in FIG. 3B, “51” refers to GM15851 cells. Cells were treated as in Example 4.
(§2) Total cell extracts from cell lines were used for immunoblot analysis. Antibodies to frataxin (abcam ab110328, 1:250 dilution) or alpha-Tubulin (Cell Signaling Technologies 2144, 1:1000 dilution) were used. Signal was detected by chemiluminescence with HRP-conjugated secondary antibodies (Bio-Rad 172-1011, 1:2000 for anti-mouse frataxin and GE NA934V, 1:2000 for anti-rabbit alpha-Tubulin).

FXN-GAA-Luc = assay: Luciferase reporter assay, FXN-GAA-Luc line (~310 GAA repeats); type: cell-based; details: 24 hours, 2 μM unless otherwise indicated (Agent 4 at 1 or 2)
Protocol: This reporter, which includes a ˜310 GAA repeat, recapitulates both the transcriptional repression and the heterochromatin formation at the endogenous FXN locus that are hallmarks of the FRDA disease.
Cells containing FXN-Luc or FXN-GAA-Luc were seeded onto 24-well plates at a confluency of 20%. The next day, media was refreshed and cells were treated 24 hours with the indicated compound at the indicated concentration. Next, cell lysates were harvested and analyzed with the Luciferase Assay System (Promega, Madison, Wis.) per manufacturer's directions on a Synergy H4 Hybrid Reader (BioTek, Winooski, Vt.).

FXN protein [2] = assay: Immunoblot for FXN protein in GM15850 cells; type: cell-based, human; details: GM15850, 24 hours, 1 μM (Agent 4: 0.1, 0.5 or 1 μM)
Protocol: as §1, §2

Row | Structure (SMILES) | increase in FXN mRNA levels (frataxin (FXN) mRNA) | FXN protein (immunoblot) (FXN protein [1]) | luciferase activity (FXN-GAA-Luc) | FXN protein (immunoblot) (FXN protein [2])
1 | Cc1sc2c(c1C)C(c1ccc(Cl)cc1)=N[C@@H](CC(=O)NCCOCCOCCOCCOCCOCCOCCC(=O)NCCCN(C)CCCNC(=O)CCNC(=O)c1cc(NC(=O)c3cc(NC(=O)c4nc(NC(=O)c5cc(NC(=O)CCCNC(=O)c6nc(NC(=O)c7cc(NC(=O)c8cc(NC(=O)c9sccc9Cl)cn8C)cn7C)cn6C)cn5C)cn4C)cn3C)cn1C)c1nnc(C)n1-2 [Control Conjugate 2] | no increase | increase in FXN protein | – | –
2 | Cc1sc2c(c1C)C(c1ccc(Cl)cc1)=N[C@@H](CC(=O)OC(C)(C)C)c1nnc(C)n1-2 [JQ1] | no increase | – | Significant activation was not observed | Neither polyamide alone (3), nor JQ1, nor the unconjugated treatment induced increased production of FXN protein
